Key:
cyclooxygenase [1] = biological target: T1, cyclooxygenase (Rattus norvegicus, UniProt Q63921); assay: Test (b): in vitro heparinised rat blood, A23187 challenge, PGE2 radioimmunoassay (cyclooxygenase); type: cell-based
T1 construct: incubating a test compound with heparinised rat blood; endogenous in cells; host or cells: heparinised rat blood (platelets and leukocytes)
T1 sequence (Q63921 27-602): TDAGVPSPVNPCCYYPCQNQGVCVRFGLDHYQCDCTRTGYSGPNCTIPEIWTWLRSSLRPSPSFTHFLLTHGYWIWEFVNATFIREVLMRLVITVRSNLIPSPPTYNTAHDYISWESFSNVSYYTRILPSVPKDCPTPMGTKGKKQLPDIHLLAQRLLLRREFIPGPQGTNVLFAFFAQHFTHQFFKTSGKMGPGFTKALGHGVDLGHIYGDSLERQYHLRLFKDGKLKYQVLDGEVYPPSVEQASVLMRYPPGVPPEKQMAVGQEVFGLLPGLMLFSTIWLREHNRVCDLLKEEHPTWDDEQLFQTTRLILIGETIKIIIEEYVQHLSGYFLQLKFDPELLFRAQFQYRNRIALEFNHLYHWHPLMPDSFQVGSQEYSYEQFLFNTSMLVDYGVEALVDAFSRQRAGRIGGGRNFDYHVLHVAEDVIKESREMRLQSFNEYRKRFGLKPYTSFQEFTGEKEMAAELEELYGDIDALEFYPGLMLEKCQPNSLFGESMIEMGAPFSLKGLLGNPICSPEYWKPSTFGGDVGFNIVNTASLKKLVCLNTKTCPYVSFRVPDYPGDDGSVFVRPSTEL
Protocol: (§1) b) An in vitro assay system involving incubating a test compound with heparinised rat blood, prior to challenge with the calcium ionophore A23187 and then indirectly measuring the inhibitory effects on 5-LO by assaying the amount of LTB4 using the specific radioimmunoassay described by Carey and Forder (F. Carey and R. A. Forder, Brit. J. Pharmacol. 1985, 84, 34P) which involves the use of a protein-LTB4 conjugate produced using the procedure of Young et alia (Prostaglandins, 1983, 26(4), 605-613). The effects of a test compound on the enzyme cyclooxygenase (which is involved in the alternative metabolic pathway for arachidonic acid and gives rise to prostaglandins, thromboxanes and related metabolites) may be measured at the same time using the specific radioimmunoassay for prostaglandin E2 (PGE2) described by Carey and Forder (see above). This test provides an indication of the effects of a test compound against 5-LO and also cyclooxygenase in the presence of blood cells and proteins. It permits the selectivity of the inhibitory effect on 5-LO or cyclooxygenase to be assessed.

5-LO [2] = biological target: T2, 5-LO (Rattus norvegicus, UniProt P12527); assay: Test (b): in vitro heparinised rat blood, A23187 challenge, LTB4 radioimmunoassay (5-LO); type: cell-based
T2 construct: challenge with A23187 and radioimmunoassay of LTB4 and PGE2; endogenous in cells; host or cells: blood collected after oral dosing, heparinised
T2 sequence (P12527 1-673): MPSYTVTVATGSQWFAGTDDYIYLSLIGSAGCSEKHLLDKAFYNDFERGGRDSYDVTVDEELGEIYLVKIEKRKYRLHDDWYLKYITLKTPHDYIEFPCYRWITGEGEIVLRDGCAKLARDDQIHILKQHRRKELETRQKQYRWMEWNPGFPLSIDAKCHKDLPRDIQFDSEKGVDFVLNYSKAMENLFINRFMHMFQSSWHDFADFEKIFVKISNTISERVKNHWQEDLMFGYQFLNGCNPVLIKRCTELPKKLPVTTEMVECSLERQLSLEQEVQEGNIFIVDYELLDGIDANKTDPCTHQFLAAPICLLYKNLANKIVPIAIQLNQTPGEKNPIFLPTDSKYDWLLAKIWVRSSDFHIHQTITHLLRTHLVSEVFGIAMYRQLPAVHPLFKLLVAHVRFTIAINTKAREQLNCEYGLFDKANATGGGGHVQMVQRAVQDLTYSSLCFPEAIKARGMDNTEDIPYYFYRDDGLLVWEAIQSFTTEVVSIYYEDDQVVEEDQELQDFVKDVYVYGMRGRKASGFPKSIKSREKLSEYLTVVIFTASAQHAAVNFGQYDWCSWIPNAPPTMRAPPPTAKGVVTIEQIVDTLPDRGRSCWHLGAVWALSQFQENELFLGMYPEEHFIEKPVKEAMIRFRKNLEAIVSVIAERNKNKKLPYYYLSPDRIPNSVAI
Protocol: as §1

5-LO [3] = biological target: T2, 5-LO; assay: Test (c): ex vivo assay, oral dosing, blood A23187 challenge, LTB4 radioimmunoassay; type: in vivo
Protocol: as §1
(§2) c) An ex vivo assay system, which is a variation of test (b) above, involving administration of a test compound (usually orally as a suspension in carboxymethylcellulose)blood collection, heparinisation, challenge with A23187 and radioimmunoassay of LTB4 and PGE2. […]

cyclooxygenase [4] = biological target: T1, cyclooxygenase; assay: Test (c): ex vivo assay, oral dosing, blood A23187 challenge, PGE2 radioimmunoassay; type: in vivo
Protocol: as §1, §2

[5] = biological target: T3, 5-LO isolated from guinea pig neutrophils (Cavia porcellus, UniProt A0A286X958); assay: Test (a): in vitro spectrophotometric enzyme assay, cell free system, 5-LO isolated from guinea pig neutrophils; type: biochemical
T3 construct: 5-LO isolated from guinea pig neutrophils; from tissue; host or cells: guinea pig neutrophils
T3 sequence (A0A286X958 1-674): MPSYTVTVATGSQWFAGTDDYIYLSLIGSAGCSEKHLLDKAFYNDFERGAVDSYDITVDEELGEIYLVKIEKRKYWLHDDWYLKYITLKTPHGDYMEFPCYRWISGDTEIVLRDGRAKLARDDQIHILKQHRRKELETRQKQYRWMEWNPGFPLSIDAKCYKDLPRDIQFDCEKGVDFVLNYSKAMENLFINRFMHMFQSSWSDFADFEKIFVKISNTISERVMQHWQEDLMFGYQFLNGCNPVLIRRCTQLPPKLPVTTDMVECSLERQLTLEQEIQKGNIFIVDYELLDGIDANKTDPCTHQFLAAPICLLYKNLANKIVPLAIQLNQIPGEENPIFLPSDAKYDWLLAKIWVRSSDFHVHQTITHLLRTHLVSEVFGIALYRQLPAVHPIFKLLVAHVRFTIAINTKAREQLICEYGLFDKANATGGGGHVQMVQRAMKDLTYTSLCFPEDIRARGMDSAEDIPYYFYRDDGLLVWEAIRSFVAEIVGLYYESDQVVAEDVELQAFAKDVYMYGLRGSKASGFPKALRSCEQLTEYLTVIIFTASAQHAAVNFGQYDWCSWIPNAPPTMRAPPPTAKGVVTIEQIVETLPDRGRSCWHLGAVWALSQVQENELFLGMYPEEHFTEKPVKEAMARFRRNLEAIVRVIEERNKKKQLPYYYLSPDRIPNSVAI
Excerpt: a) An in vitro spectrophotometric enzyme assay system, which assesses the inhibitory properties of a test compound in a cell free system using 5-LO isolated from guinea pig neutrophils and as described by D. Aharony and R. L. Stein (J. Biol. Chem., 1986, 261(25), 11512-11519). This test provides a measure of the intrinsic inhibitory properties against soluble 5-LO in an extracellular environment.

[6] = tested on: carrageenin induced oedema in rat paws; conditions: J. Heterocyclic Chemistry, 1970, 7, 815-820; cited from earlier work
[7] = tested on: carrageenin induced oedema in rat paws; assay: carrageenin induced oedema in rat paws; type: in vivo; conditions: dosed orally at 100 mg/kg
Excerpt: A specific known indazolone of formula I which is of particular interest as an inhibitor of 5-LO is, for example, 1,2-dihydro-2-benzylindazol-3-one.

| IC50 (cyclooxygenase [1]) [µM] | IC50 (5-LO [2]) [nM] | ED50 (5-LO [3]) [mg/kg] | ED50 (cyclooxygenase [4]) [mg/kg] | IC50 [5] [nM] | Compound | anti-inflammatory properties in carrageenin induced oedema in rat paws [6] | significant effects in carrageenin induced oedema in rat paws [7] |
| --- | --- | --- | --- | --- | --- | --- | --- |
| > 100 | < 5000 | < 10 | > 100 |  | O=c1c2ccccc2[nH]n1Cc1cccnc1 [Example 24] |  |  |
| 100 | 800 | 30 |  | 1700 | O=c1c2ccccc2[nH]n1Cc1cccc2ccccc12 [Example 1, 1,2-dihydro-2-(1-naphthylmethyl)-3H-indazol-3-one] |  |  |
|  |  |  |  |  | O=c1c2ccccc2[nH]n1Cc1ccccc1 [1,2-dihydro-2-benzylindazol-3-one] | weak anti-inflammatory properties | unable to detect any significant effects |

Reference: US5173496A, “Therapeutic preparations containing indazole derivatives” (ICI Pharma, priority 1987, dated 1992)
